# Results taken from patent publication US11384063B2, “Modulators of estrogen receptor proteolysis and associated methods of use” (Arvinas Operations, Inc., priority 2017, dated 2022).
# What was measured:
# ERα [1] = target: T1, ERα (Homo sapiens, UniProt P03372); assay: Estrogen receptor-alpha (ERα) degradation assay in MCF7 cells using In-Cell Western assay; assay type: cell-based; parameters: assessed for their activity in degrading ERα in MCF-7 cells via western blot; endogenous in cells; host or cells: MCF7 cells; conditions: ER-alpha degradation in MCF7 cells, 5 days of incubation
# T1 sequence (P03372 1-595): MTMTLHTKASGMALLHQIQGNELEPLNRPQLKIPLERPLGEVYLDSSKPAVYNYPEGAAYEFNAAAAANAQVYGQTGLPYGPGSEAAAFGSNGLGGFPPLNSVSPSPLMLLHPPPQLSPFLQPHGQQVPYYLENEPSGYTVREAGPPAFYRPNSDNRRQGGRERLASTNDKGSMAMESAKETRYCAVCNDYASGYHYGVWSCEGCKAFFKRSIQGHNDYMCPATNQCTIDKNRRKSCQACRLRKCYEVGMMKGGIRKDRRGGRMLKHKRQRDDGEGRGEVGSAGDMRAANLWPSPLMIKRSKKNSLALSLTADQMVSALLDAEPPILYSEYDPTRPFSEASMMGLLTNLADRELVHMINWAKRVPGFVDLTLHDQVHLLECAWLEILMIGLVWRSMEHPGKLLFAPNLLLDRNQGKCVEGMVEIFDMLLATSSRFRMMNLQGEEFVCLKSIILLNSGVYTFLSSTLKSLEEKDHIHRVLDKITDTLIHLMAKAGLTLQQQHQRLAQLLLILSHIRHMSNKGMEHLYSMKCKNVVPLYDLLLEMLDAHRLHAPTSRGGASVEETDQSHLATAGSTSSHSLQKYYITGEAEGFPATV
# Method in brief: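 MCF7 cells treated 3 or 5 days at 37 °C with 11-point 3-fold dilutions from 1 μM final top. Fixed cells immunostained for ERα and tubulin, read by infrared imaging at 700/800 nm. ERα normalized to tubulin then to DMSO vehicle; DC50 and Dmax from 4-parameter curve fit.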
# ERα [2] = target: T1, ERα; assay: ERE luciferase reporter gene assay in T47D-KBluc cells (target engagement); assay type: cell-based; parameters: T47D human breast cancer cells stably transfected with estrogen responsive element/promoter/luciferase reporter gene; host or cells: T47D-KBluc cells; conditions: 10% FBS, 24 hours, Table 3 cereblon centric PROTACs, read-out: ER-α Luciferase IC50
# Method in brief: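 T47D-KBluc breast cancer cells, which carry a stable ERE-luciferase reporter, were grown in RPMI with 10% FBS (about 10 pM estrogen) and exposed to PROTACs for 24 h. The 12-point, 3-fold series ran from 300 nM to 2 pM. Luciferase was read after lysis, and IC50 was fitted from duplicates.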
DC50 (ERα [1]) [nM],Dmax (ERα [1]) [%],IC50 (ERα [2]) [nM],Structure (SMILES)
1 to 10,50 to 75,7.7,"O=C1CCC(N2Cc3cc(N4CCN(C5CC(Oc6ccc(Oc7c(-c8ccc(Br)cc8)sc8cc(O)ccc78)cc6)C5)CC4)ccc3C2=O)C(=O)N1 (centres unmarked) [Compound 224, 3-[5-[4-[3-[4-[2-(4-bromophenyl)-6-hydroxy-benzothiophen-3-yl]oxyphenoxy]cyclobutyl]piperazin-1-yl]-1-oxo-isoindolin-2-yl]piperidine-2,6-dione]"
,< 50,4.8,"O=C1CCC(N2C(=O)c3ccc(N4CCN(CCOCc5ccc(Oc6c(-c7ccc(Br)cc7)sc7cc(O)ccc67)cc5)CC4)cc3C2=O)C(=O)N1 (centres unmarked) [Compound 225, 5-[4-[2-[[4-[2-(4-bromophenyl)-6-hydroxy-benzothiophen-3-yl]oxyphenyl]methoxy]ethyl]piperazin-1-yl]-2-(2,6-dioxo-3-piperidyl)isoindoline-1,3-dione]"
1 to 10,> 75,1.2,"O=C1CCC(N2Cc3cc(N4CCN(CC5CCN(c6ccc(Oc7c(-c8ccc(F)cc8)sc8cc(O)ccc78)cc6)CC5)CC4)ccc3C2=O)C(=O)N1 (centres unmarked) [Compound 226, 3-[5-[4-[[1-[4-[2-(4-fluorophenyl)-6-hydroxy-benzothiophen-3-yl]oxyphenyl]-4-piperidyl]methyl]piperazin-1-yl]-1-oxo-isoindolin-2-yl]piperidine-2,6-dione]"
1 to 10,> 75,7,"O=C1CCC(N2C(=O)c3ccc(N4CCN(CC5CCN(c6ccc(Oc7c(-c8ccc(F)cc8)sc8cc(O)ccc78)cc6)CC5)CC4)cc3C2=O)C(=O)N1 (centres unmarked) [Compound 227, 2-(2,6-dioxo-3-piperidyl)-5-[4-[[1-[4-[2-(4-fluorophenyl)-6-hydroxy-benzothiophen-3-yl]oxyphenyl]-4-piperidyl]methyl]piperazin-1-yl]isoindoline-1,3-dione]"
1 to 10,> 75,24.9,"O=C1CCC(N2C(=O)c3ccc(N4CCN(CC5CCN(c6ccc(Oc7c(-c8ccc(Br)cc8)sc8cc(O)ccc78)cc6)CC5)CC4)cc3C2=O)C(=O)N1 (centres unmarked) [Compound 228, 5-[4-[[1-[4-[2-(4-bromophenyl)-6-hydroxy-benzothiophen-3-yl]oxyphenyl]-4-pipendyl]methyl]piperazin-1-yl]-2-(2,6-dioxo-3-piperidyl)isoindoline-1,3-dione]"
1 to 10,> 75,1,"O=C1CCC(N2Cc3cc(N4CCN(CCC5CCN(c6ccc(Oc7c(-c8ccc(F)cc8)sc8cc(O)ccc78)cc6)CC5)CC4)ccc3C2=O)C(=O)N1 (centres unmarked) [Compound 229, 3-[5-[4-[2-[1-[4-[2-(4-fluorophenyl)-6-hydroxy-benzothiophen-3-yl]oxyphenyl]-4-piperidyl]ethyl]piperazin-1-yl]-1-oxo-isoindolin-2-yl]piperidine-2,6-dione]"
1 to 10,> 75,1.1,"O=C1CCC(N2Cc3nc(N4CCN(CC5CCN(c6ccc(Oc7c(-c8ccc(F)cc8)sc8cc(O)ccc78)cc6)CC5)CC4)ccc3C2=O)C(=O)N1 (centres unmarked) [Compound 230, 3-[2-[4-[[1-[4-[2-(4-fluorophenyl)-6-hydroxy-benzothiophen-3-yl]oxyphenyl]-4-pipendyl]methyl]piperazin-1-yl]-5-oxo-7H-pyrrolo[3,4-b]pyridin-6-yl]piperidine-2,6-dione]"
1 to 10,50 to 75,7.1,"O=C1CCC(N2Cc3cc(N4CCN(CC5CCN(c6ccc(Oc7c(-c8ccc(Br)cc8)sc8cc(O)ccc78)cc6)CC5)CC4)ccc3C2=O)C(=O)N1 (centres unmarked) [Compound 231, 3-[5-[4-[[1-[4-[2-(4-bromophenyl)-6-hydroxy-benzothiophen-3-yl]oxyphenyl]-4-piperidyl]methyl]piperazin-1-yl]-1-oxo-isoindolin-2-yl]piperidine-2,6-dione]"
< 1,> 75,1.6,"O=C1CCC(N2Cc3cc(N4CCN(CC5CCN(c6ccc(Oc7c(-c8ccc(F)cc8)sc8cc(O)ccc78)cn6)CC5)CC4)ccc3C2=O)C(=O)N1 (centres unmarked) [Compound 232, 3-[5-[4-[[1-[5-[2-(4-fluorophenyl)-6-hydroxy-benzothiophen-3-yl]oxy-2-pyridyl]-4-piperidyl]methyl]piperazin-1-yl]-1-oxo-isoindolin-2-yl]piperidine-2,6-dione]"
< 1,50 to 75,0.65,"COc1ccc(-c2sc3cc(O)ccc3c2Oc2ccc(N3CCC(CN4CCN(c5ccc6c(c5)CN(C5CCC(=O)NC5=O)C6=O)CC4)CC3)cc2)cc1 (centres unmarked) [Compound 234, 3-[5-[4-[[1-[4-[6-hydroxy-2-(4-methoxyphenyl)benzothiophen-3-yl]-oxyphenyl]-4-piperidyl]methyl]piperazin-1-yl]-1-oxo-isoindolin-2-yl]piperidine-2,6-dione]"
1 to 10,> 75,6.9,"O=C1CCC(N2Cc3nc(N4CCN(CC5CCN(c6ccc(Oc7c(-c8ccc(Br)cc8)sc8cc(O)ccc78)cc6)CC5)CC4)ccc3C2=O)C(=O)N1 (centres unmarked) [Compound 235, 3-[2-[4-[[1-[4-[2-(4-bromophenyl)-6-hydroxy-benzothiophen-3-yl]oxyphenyl]-4-piperidyl]methyl]piperazin-1-yl]-5-oxo-7H-pyrrolo[3,4-b]pyridin-6-yl]piperidine-2,6-dione]"
1 to 10,> 75,4.9,"O=C1CCC(N2Cc3cc(N4CCN(CC5CCN(c6ccc(Oc7c(-c8ccc(Br)cc8)sc8cc(O)ccc78)cn6)CC5)CC4)ccc3C2=O)C(=O)N1 (centres unmarked) [Compound 236, 3-[5-[4-[[1-[5-[2-(4-bromophenyl)-6-hydroxy-benzothiophen-3-yl]oxy-2-pyridyl]-4-piperidyl]methyl]piperazin-1-yl]-1-oxo-isoindolin--2-yl]piperidine-2,6-dione]"
10 to 100,> 75,4.9,"COc1ccc(-c2sc3cc(O)ccc3c2Oc2ccc(N3CCC(CN4CCN(c5ccc6c(c5)C(=O)N(C5CCC(=O)NC5=O)C6=O)CC4)CC3)cc2)cc1 (centres unmarked) [Compound 237, 2-(2,6-dioxo-3-piperidyl)-5-[4-[[1-[4-[6-hydroxy-2-(4-methoxyphenyl)benzothiophen-3-yl]oxyphenyl]-4-piperidyl]methyl]piperazin-1-yl]isoindoline-1,3-dione]"
10 to 100,> 75,10.9,"O=C1CCC(N2Cc3cc(N4CCN(CC5CCN(c6ccc(Oc7c(-c8ccc(Br)cc8)sc8cc(O)ccc78)cc6F)CC5)CC4)ccc3C2=O)C(=O)N1 (centres unmarked) [Compound 238, 3-[5-[4-[[1-[4-[2-(4-bromophenyl)-6-hydroxy-benzothiophen-3-yl]oxy-2-fluoro-phenyl]-4-piperidyl]methyl]piperazin-1-yl]-1-oxo-isoindolin-2-yl]piperidine-2,6-dione]"
10 to 100,> 75,13.5,O=C1CCC(N2Cc3nc(N4CCN(CC5CCN(c6ccc(Oc7c(-c8ccc(Br)cc8)sc8cc(O)ccc78)cc6F)CC5)CC4)ccc3C2=O)C(=O)N1 (centres unmarked) [Compound 239]
1 to 10,50 to 75,0.18,"O=C1CCC(N2Cc3nc(N4CCN(CC5CCN(c6ccc(Oc7c(-c8ccc(O)cc8)sc8cc(O)ccc78)cc6)CC5)CC4)ccc3C2=O)C(=O)N1 (centres unmarked) [Compound 243, 3-[2-[4-[[1-[4-[6-hydroxy-2-(4-hydroxyphenyl)benzothiophen-3-yl]oxyphenyl]-4-piperidyl]methyl]piperazin-1-yl]-5-oxo-7H-pyrrolo[3,4-b]pyridin-6-yl]piperidine-2,6-dione]"
1 to 10,50 to 75,0.18,"O=C1CCC(N2Cc3cc(N4CCN(CC5CCN(c6ccc(Oc7c(-c8ccc(O)cc8)sc8cc(O)ccc78)cc6)CC5)CC4)ccc3C2=O)C(=O)N1 (centres unmarked) [Compound 244, 3-[5-[4-[[1-[4-(6-hydroxy-2-(4-hydroxyphenyl)benzothiophen-3-yl]oxyphenyl]-4-piperidyl]methyl]piperazin-1-yl]-1-oxo-isoindolin-2-yl]piperidine-2,6-dione]"
10 to 100,50 to 75,0.53,"O=C1CCC(N2C(=O)c3ccc(N4CCN(CC5CCN(c6ccc(Oc7c(-c8ccc(O)cc8)sc8cc(O)ccc78)cc6)CC5)CC4)cc3C2=O)C(=O)N1 (centres unmarked) [Compound 245, 2-(2,6-dioxo-3-piperidyl)-5-[4-[[1-[4-[6-hydroxy-2-(4-hydroxyphenyl)benzothiophen-3-yl]oxyphenyl]-4-piperidyl]methyl]piperazin-1-yl]isoindoline-1,3-dione]"
